# Results reported in US9868935B2, “Composition and method of stem cells for preservation of cardiac tissue” (CRIOESTAMINAL, SAÚDE E TECNOLOGIA, SA., priority 2012, dated 2018).
# Test system: CD34+ cells
# Test: Antagonist pretreatment and LPA-induced CD34+ cell survival in hypoxia (Annexin V/PI FACS)
# Type: cell-based, human
# Conditions: LPA 100 μM alone (+LPA, no antagonist); hypoxia 24 h
# Procedure: FIG. 5—LPA induces CD34+ cell survival mainly through peroxisome proliferator-activator receptor (PPAR). Cells were cultured in serum free medium with LPA. Cells were pretreated with Rho kinase inhibitor (Y-2762, 50 μM), mitogen-activated protein kinase (MAPK) inhibitor (PD98059, 60 μM), LPA1- and LPA3-specific inhibitor (Ki16425, 10 μM), or peroxisome proliferator-activator receptor g (PPARg) inhibitor (GW9662, 50 μM) for 1 hour before hypoxia and cell medium containing LPA (100 μM) for 24 h. Cells without any pretreatment and cultured in serum free medium with or without LPA, in hypoxia for 24 h, were used as positive and negative controls, respectively. Results are average±SEM (n=3-6). * Denote statistical significance: *P<0.05, **P<0.01, […].
# The biological roles of LPA are diverse and include developmental, physiological, and pathophysiological effects (Lin, M. E., D. R. Herr, and J. Chun, Lysophosphatidic acid (LPA) receptors: signaling properties and disease relevance. Prostaglandins Other Lipid Mediat, 2010. 91(3-4): p. 130-8). To date up to five LPA receptors (LPARs) have been identified: LPA1-LPA5 (Choi, J. W., et al., LPA receptors: subtypes and biological actions. Annu Rev Pharmacol Toxicol, 2010. 50: p. 157-86). The receptors are G protein-coupled receptors (GPCRs) and their presence can be found in multiple tissues. LPA1, LPA2 and LPA3 are widely expressed in most tissues (Ishii, I., et al., Functional comparisons of the lysophosphatidic acid receptors, LP(A1)/VZG-1/EDG-2, LP(A2)/EDG-4, and LP(A3)/EDG-7 in neuronal cell lines using a retrovirus expression system. Mol Pharmacol, 2000. 58(5): p. 895-902). LP4 is expressed in specific organs, such as the pancreas, ovaries and thymus (Lee, C. W., et al., LPA(4)/GPR23 is a lysophosphatidic acid (LPA) receptor utilizing G(s)-, G(q)/G(i)-mediated calcium signaling and G(12/13)-mediated Rho activation. J Biol Chem, 2007. 282(7): p. 4310-7). LPA5 is expressed at low levels in multiple tissues (Lee, C. W., et al., GPR92 as a new G12/13- and Gq-coupled lysophosphatidic acid receptor that increases cAMP, LPA5. J Biol Chem, 2006. 281(33): p. 23589-97). To identify the receptor that is mediating the pro-survival effect of LPA (100 μM), was used Ki16425 (10 μM), an LPA1- and LPA3-specific antagonist, and GW9662 (50 μM), an antagonist of peroxisome proliferator-activator receptor γ (PPAR γ). Studies indicate that LPA has a high affinity by this last receptor (McIntyre, T. M., et al., Identification of an intracellular receptor for lysophosphatidic acid (LPA): LPA is a transcellular PPARgamma agonist. Proc Natl Acad Sci USA, 2003. 100(1): p. 131-6; Gustin, C., M. Van Steenbrugge, and M. Raes, LPA modulates monocyte migration directly and via LPA-stimulated endothelial cells. Am J Physiol Cell Physiol, 2008. 295(4): p. C905-14). This approach was complemented, by inhibiting downstream targets of the receptors including Rho kinase and mitogen-activated protein kinase (MAPK) using Y-2762 (50 μM) and PD98059 (60 μM) antagonists, respectively. It is known that all LPARs couple with and activate G proteins, which in turn activate MAPK (LPA1, LPA2, LPA3 and LPA4) and Rho kinase (LPA1, LPA2, LPA4 and LPA5) (Choi, J. W., et al., LPA receptors: subtypes and biological actions. Annu Rev Pharmacol Toxicol, 2010. 50: p. 157-86). Cells were treated for 1 h in X-Vivo medium containing a specific antagonist followed by culture under hypoxia conditions for 24 h. Cell survival was assessed by FACS analysis after Annexin V/PI staining. […] The number of viable cells decreased from 77% (+LPA) to 67% (P<0.01, n=19). […] Because the two signaling pathways are downstream targets of different LPARs (see above), this might indicate different contributions of LPARs in the survival of CD34+ cells.
substance,measurement,value
lysophosphatidic acid [LPA],number of viable cells,~77%
